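GI50: concentration for 50% inhibition of growth. At the TGI there is no net growth.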
Assays:
Experiment in all cases: inhibition of tumour cell growth, NCI panel, 384-well format
[1] = test system: UO-31 renal
[2] = test system: UACC-62 melanoma
[3] = test system: MOLT-4 leukemia
[4] = test system: RPMI-8226 leukemia
[5] = test system: NCI-H23 lung
[6] = test system: COLO 205 colon
[7] = test system: SF-268 CNS
[8] = test system: MALME-3M melanoma
[9] = test system: ACHN renal
[10] = test system: NCI/ADR-RES ovarian
[11] = test system: SK-MEL-28 melanoma
[12] = test system: OVCAR-5 ovarian
[13] = test system: HS 578T breast
[14] = test system: NCI-H522 lung
[15] = test system: SF-539 CNS
[16] = test system: NCI-H460 NSCLC
[17] = test system: DU-145 prostate
[18] = test system: LOX IMVI melanoma
[19] = test system: CCRF-CEM leukemia
[20] = test system: BT-549 breast
[21] = test system: HOP-92 NSCLC
[22] = test system: SW-620 colon
[23] = test system: NCI-H226 lung
[24] = test system: SNB-75 CNS
[25] = test system: T-47D breast
[26] = test system: OVCAR-3 ovarian
[27] = test system: EKVX NSCLC
[28] = test system: MDA-MB-231 breast
[29] = test system: HCT-116 colon

NS(=O)(=O)OC[C@H]1C[C@@H](Nc2ccnc3cc(-c4cccc(SC(F)(F)F)c4)nn23)[C@H](O)[C@@H]1O
GI50 [1]: 20.5 nM | TGI [1]: 42.1 nM | GI50 [2]: 17 nM | TGI [2]: 32.2 nM | GI50 [3]: 12.9 nM | TGI [3]: 26 nM | GI50 [4]: 202 nM | TGI [4]: 348 nM | GI50 [5]: 19.3 nM | TGI [5]: 51.3 nM | GI50 [6]: < 10 nM | TGI [6]: 14.9 nM | GI50 [7]: < 10 nM | TGI [7]: < 10 nM | GI50 [8]: < 10 nM | TGI [8]: 21.5 nM | GI50 [9]: 59 nM | TGI [9]: 190 nM | GI50 [10]: 129 nM | TGI [10]: 260 nM | GI50 [11]: < 10 nM | TGI [11]: < 10 nM | GI50 [12]: 12.8 nM | TGI [12]: 34.2 nM | GI50 [13]: 14.2 nM | TGI [13]: 28.4 nM | GI50 [14]: < 10 nM | TGI [14]: < 10 nM | GI50 [15]: < 10 nM | TGI [15]: < 10 nM | GI50 [16]: 147 nM | TGI [16]: 286 nM | GI50 [17]: < 10 nM | TGI [17]: 44.9 nM | GI50 [18]: < 10 nM | TGI [18]: < 10 nM | GI50 [19]: < 10 nM | TGI [19]: < 10 nM | GI50 [20]: < 10 nM | TGI [20]: 16.1 nM | GI50 [21]: 12.2 nM | TGI [21]: 25.4 nM | GI50 [22]: 14.4 nM | TGI [22]: 27.8 nM | GI50 [23]: < 10 nM | TGI [23]: < 10 nM | GI50 [24]: 19 nM | TGI [24]: 34.4 nM | GI50 [25]: < 10 nM | TGI [25]: 12.4 nM | GI50 [26]: < 10 nM | TGI [26]: < 10 nM | GI50 [27]: 14 nM | TGI [27]: 28 nM | GI50 [28]: < 10 nM | TGI [28]: 23.4 nM | GI50 [29]: < 10 nM | TGI [29]: 11.3 nM
